Assay results published in ChEMBL document CHEMBL4627246, “Pyroglutamide-Based P2X7 Receptor Antagonists Targeting Inflammatory Bowel Disease” (J Med Chem, 2020).

system: RXF 393; assay: Cytotoxicity against human RXF393 cells assessed as effect on cell growth at 10 uM incubated for 48 hrs by sulforhodamine B assay; type: cell-based; settings: rxf 393, 48 h

Row | SMILES | Activity
1 | O=C(NCc1ccc(Cl)cc1Cl)[C@@H]1CCC(=O)N1c1ccc(Cl)cc1Cl | Non-Toxic
2 | O=C(NCc1ccc(Cl)cc1Cl)[C@@H]1CCC(=O)N1c1ccsc1 | Non-Toxic
3 | CN1C(=O)C(C)(C)C[C@H]1C(=O)NCc1cccc(C(F)(F)F)c1Cl | Non-Toxic

system: MDA-MB-231; assay: Cytotoxicity against human MDA-MB-231 cells assessed as effect on cell growth at 10 uM incubated for 48 hrs by sulforhodamine B assay; type: cell-based; settings: mda-mb-231, 48 h

Row | SMILES | Activity
4 | O=C(NCc1ccc(Cl)cc1Cl)[C@@H]1CCC(=O)N1c1ccc(Cl)cc1Cl | Non-Toxic
5 | O=C(NCc1ccc(Cl)cc1Cl)[C@@H]1CCC(=O)N1c1ccsc1 | Non-Toxic
6 | CN1C(=O)C(C)(C)C[C@H]1C(=O)NCc1cccc(C(F)(F)F)c1Cl | Non-Toxic

system: SF-268; assay: Cytotoxicity against human SF268 cells assessed as effect on cell growth at 10 uM incubated for 48 hrs by sulforhodamine B assay; type: cell-based; settings: sf-268, 48 h

Row | SMILES | Activity
7 | O=C(NCc1ccc(Cl)cc1Cl)[C@@H]1CCC(=O)N1c1ccc(Cl)cc1Cl | Non-Toxic
8 | O=C(NCc1ccc(Cl)cc1Cl)[C@@H]1CCC(=O)N1c1ccsc1 | Non-Toxic
9 | CN1C(=O)C(C)(C)C[C@H]1C(=O)NCc1cccc(C(F)(F)F)c1Cl | Non-Toxic

system: LOX IMVI; assay: Cytotoxicity against human LOXIMVI cells assessed as effect on cell growth at 10 uM incubated for 48 hrs by sulforhodamine B assay; type: cell-based; settings: not given

Row | SMILES | Activity
10 | O=C(NCc1ccc(Cl)cc1Cl)[C@@H]1CCC(=O)N1c1ccc(Cl)cc1Cl | Non-Toxic
11 | O=C(NCc1ccc(Cl)cc1Cl)[C@@H]1CCC(=O)N1c1ccsc1 | Non-Toxic
12 | CN1C(=O)C(C)(C)C[C@H]1C(=O)NCc1cccc(C(F)(F)F)c1Cl | Non-Toxic

system: K562; assay: Cytotoxicity against human K562 cells assessed as effect on cell growth at 10 uM incubated for 48 hrs by sulforhodamine B assay; type: cell-based; settings: k562, 48 h

Row | SMILES | Activity
13 | O=C(NCc1ccc(Cl)cc1Cl)[C@@H]1CCC(=O)N1c1ccc(Cl)cc1Cl | Non-Toxic
14 | O=C(NCc1ccc(Cl)cc1Cl)[C@@H]1CCC(=O)N1c1ccsc1 | Non-Toxic
15 | CN1C(=O)C(C)(C)C[C@H]1C(=O)NCc1cccc(C(F)(F)F)c1Cl | Non-Toxic

system: NCI-H226; assay: Cytotoxicity against human NCI-H226 cells assessed as effect on cell growth at 10 uM incubated for 48 hrs by sulforhodamine B assay; type: cell-based; settings: nci-h226, 48 h

Row | SMILES | Activity
16 | O=C(NCc1ccc(Cl)cc1Cl)[C@@H]1CCC(=O)N1c1ccc(Cl)cc1Cl | Non-Toxic
17 | O=C(NCc1ccc(Cl)cc1Cl)[C@@H]1CCC(=O)N1c1ccsc1 | Non-Toxic
18 | CN1C(=O)C(C)(C)C[C@H]1C(=O)NCc1cccc(C(F)(F)F)c1Cl | Non-Toxic

system: SK-MEL-5; assay: Cytotoxicity against human SK-MEL-5 cells assessed as effect on cell growth at 10 uM incubated for 48 hrs by sulforhodamine B assay; type: cell-based; settings: sk-mel-5, 48 h

Row | SMILES | Activity
19 | O=C(NCc1ccc(Cl)cc1Cl)[C@@H]1CCC(=O)N1c1ccc(Cl)cc1Cl | Non-Toxic
20 | O=C(NCc1ccc(Cl)cc1Cl)[C@@H]1CCC(=O)N1c1ccsc1 | Non-Toxic
21 | CN1C(=O)C(C)(C)C[C@H]1C(=O)NCc1cccc(C(F)(F)F)c1Cl | Non-Toxic

system: Hs-578T; assay: Cytotoxicity against human Hs 578T cells assessed as effect on cell growth at 10 uM incubated for 48 hrs by sulforhodamine B assay; type: cell-based; settings: not given

Row | SMILES | Activity
22 | O=C(NCc1ccc(Cl)cc1Cl)[C@@H]1CCC(=O)N1c1ccc(Cl)cc1Cl | Non-Toxic
23 | O=C(NCc1ccc(Cl)cc1Cl)[C@@H]1CCC(=O)N1c1ccsc1 | Non-Toxic
24 | CN1C(=O)C(C)(C)C[C@H]1C(=O)NCc1cccc(C(F)(F)F)c1Cl | Non-Toxic

system: CCRF-CEM; assay: Cytotoxicity against human CCRF-CEM cells assessed as effect on cell growth at 10 uM incubated for 48 hrs by sulforhodamine B assay; type: cell-based; settings: not given

Row | SMILES | Activity
25 | O=C(NCc1ccc(Cl)cc1Cl)[C@@H]1CCC(=O)N1c1ccc(Cl)cc1Cl | Non-Toxic
26 | O=C(NCc1ccc(Cl)cc1Cl)[C@@H]1CCC(=O)N1c1ccsc1 | Non-Toxic
27 | CN1C(=O)C(C)(C)C[C@H]1C(=O)NCc1cccc(C(F)(F)F)c1Cl | Non-Toxic

system: MDA-MB-435; assay: Cytotoxicity against human MDA-MB-435 cells assessed as effect on cell growth at 10 uM incubated for 48 hrs by sulforhodamine B assay; type: cell-based; settings: mda-mb-435, 48 h

Row | SMILES | Activity
28 | O=C(NCc1ccc(Cl)cc1Cl)[C@@H]1CCC(=O)N1c1ccc(Cl)cc1Cl | Non-Toxic
29 | O=C(NCc1ccc(Cl)cc1Cl)[C@@H]1CCC(=O)N1c1ccsc1 | Non-Toxic
30 | CN1C(=O)C(C)(C)C[C@H]1C(=O)NCc1cccc(C(F)(F)F)c1Cl | Non-Toxic

system: CAKI-1; assay: Growth inhibition of human Caki1 cells assessed as growth percentage at 10 uM incubated for 48 hrs by sulforhodamine B assay; type: cell-based; settings: caki-1, 48 h

Row | SMILES | Activity
31 | O=C(NCc1ccc(Cl)cc1Cl)[C@@H]1CCC(=O)N1c1ccc(Cl)cc1Cl | Non-Toxic
32 | O=C(NCc1ccc(Cl)cc1Cl)[C@@H]1CCC(=O)N1c1ccsc1 | Non-Toxic
33 | CN1C(=O)C(C)(C)C[C@H]1C(=O)NCc1cccc(C(F)(F)F)c1Cl | Non-Toxic

system: BT-549; assay: Cytotoxicity against human BT549 cells assessed as effect on cell growth at 10 uM incubated for 48 hrs by sulforhodamine B assay; type: cell-based; settings: bt-549, 48 h

Row | SMILES | Activity
34 | O=C(NCc1ccc(Cl)cc1Cl)[C@@H]1CCC(=O)N1c1ccc(Cl)cc1Cl | Non-Toxic
35 | O=C(NCc1ccc(Cl)cc1Cl)[C@@H]1CCC(=O)N1c1ccsc1 | Non-Toxic
36 | CN1C(=O)C(C)(C)C[C@H]1C(=O)NCc1cccc(C(F)(F)F)c1Cl | Non-Toxic

system: SK-MEL-28; assay: Cytotoxicity against human SK-MEL-28 cells assessed as effect on cell growth at 10 uM incubated for 48 hrs by sulforhodamine B assay; type: cell-based; settings: sk-mel-28, 48 h

Row | SMILES | Activity
37 | O=C(NCc1ccc(Cl)cc1Cl)[C@@H]1CCC(=O)N1c1ccc(Cl)cc1Cl | Non-Toxic
38 | O=C(NCc1ccc(Cl)cc1Cl)[C@@H]1CCC(=O)N1c1ccsc1 | Non-Toxic
39 | CN1C(=O)C(C)(C)C[C@H]1C(=O)NCc1cccc(C(F)(F)F)c1Cl | Non-Toxic

system: MCF7; assay: Cytotoxicity against human MCF7 cells assessed as effect on cell growth at 10 uM incubated for 48 hrs by sulforhodamine B assay; type: cell-based; settings: mcf7, 48 h

Row | SMILES | Activity
40 | O=C(NCc1ccc(Cl)cc1Cl)[C@@H]1CCC(=O)N1c1ccc(Cl)cc1Cl | Non-Toxic
41 | O=C(NCc1ccc(Cl)cc1Cl)[C@@H]1CCC(=O)N1c1ccsc1 | Non-Toxic
42 | CN1C(=O)C(C)(C)C[C@H]1C(=O)NCc1cccc(C(F)(F)F)c1Cl | Non-Toxic

system: OVCAR-4; assay: Cytotoxicity against human OVCAR4 cells assessed as effect on cell growth at 10 uM incubated for 48 hrs by sulforhodamine B assay; type: cell-based; settings: ovcar-4, 48 h

Row | SMILES | Activity
43 | O=C(NCc1ccc(Cl)cc1Cl)[C@@H]1CCC(=O)N1c1ccc(Cl)cc1Cl | Non-Toxic
44 | O=C(NCc1ccc(Cl)cc1Cl)[C@@H]1CCC(=O)N1c1ccsc1 | Non-Toxic
45 | CN1C(=O)C(C)(C)C[C@H]1C(=O)NCc1cccc(C(F)(F)F)c1Cl | Non-Toxic

system: UACC-257; assay: Cytotoxicity against human UACC257 cells assessed as effect on cell growth at 10 uM incubated for 48 hrs by sulforhodamine B assay; type: cell-based; settings: uacc-257, 48 h

Row | SMILES | Activity
46 | O=C(NCc1ccc(Cl)cc1Cl)[C@@H]1CCC(=O)N1c1ccc(Cl)cc1Cl | Non-Toxic
47 | O=C(NCc1ccc(Cl)cc1Cl)[C@@H]1CCC(=O)N1c1ccsc1 | Non-Toxic
48 | CN1C(=O)C(C)(C)C[C@H]1C(=O)NCc1cccc(C(F)(F)F)c1Cl | Non-Toxic

system: OVCAR-3; assay: Cytotoxicity against human OVCAR3 cells assessed as effect on cell growth at 10 uM incubated for 48 hrs by sulforhodamine B assay; type: cell-based; settings: ovcar-3, 48 h

Row | SMILES | Activity
49 | O=C(NCc1ccc(Cl)cc1Cl)[C@@H]1CCC(=O)N1c1ccc(Cl)cc1Cl | Non-Toxic
50 | O=C(NCc1ccc(Cl)cc1Cl)[C@@H]1CCC(=O)N1c1ccsc1 | Non-Toxic
51 | CN1C(=O)C(C)(C)C[C@H]1C(=O)NCc1cccc(C(F)(F)F)c1Cl | Non-Toxic

system: SK-MEL-2; assay: Cytotoxicity against human SK-MEL-2 cells assessed as effect on cell growth at 10 uM incubated for 48 hrs by sulforhodamine B assay; type: cell-based; settings: sk-mel-2, 48 h

Row | SMILES | Activity
52 | O=C(NCc1ccc(Cl)cc1Cl)[C@@H]1CCC(=O)N1c1ccc(Cl)cc1Cl | Non-Toxic
53 | O=C(NCc1ccc(Cl)cc1Cl)[C@@H]1CCC(=O)N1c1ccsc1 | Non-Toxic
54 | CN1C(=O)C(C)(C)C[C@H]1C(=O)NCc1cccc(C(F)(F)F)c1Cl | Non-Toxic

system: SN12C; assay: Cytotoxicity against human SN12C cells assessed as effect on cell growth at 10 uM incubated for 48 hrs by sulforhodamine B assay; type: cell-based; settings: not given

Row | SMILES | Activity
55 | O=C(NCc1ccc(Cl)cc1Cl)[C@@H]1CCC(=O)N1c1ccc(Cl)cc1Cl | Non-Toxic
56 | O=C(NCc1ccc(Cl)cc1Cl)[C@@H]1CCC(=O)N1c1ccsc1 | Non-Toxic
57 | CN1C(=O)C(C)(C)C[C@H]1C(=O)NCc1cccc(C(F)(F)F)c1Cl | Non-Toxic

system: HOP-62; assay: Cytotoxicity against human HOP62 cells assessed as effect on cell growth at 10 uM incubated for 48 hrs by sulforhodamine B assay; type: cell-based; settings: hop-62, 48 h

Row | SMILES | Activity
58 | O=C(NCc1ccc(Cl)cc1Cl)[C@@H]1CCC(=O)N1c1ccc(Cl)cc1Cl | Non-Toxic
59 | O=C(NCc1ccc(Cl)cc1Cl)[C@@H]1CCC(=O)N1c1ccsc1 | Non-Toxic
60 | CN1C(=O)C(C)(C)C[C@H]1C(=O)NCc1cccc(C(F)(F)F)c1Cl | Non-Toxic
